Values of other authors in US7772207B2, “Combination of a CDK inhibitor and CS-682 or a metabolite thereof” (Cyclacel Limited, priority 2003, dated 2010).

Assays:
[1] = system: colon cancer
[2] = phase I, patients with a variety of cancers

SMILES: CCCCCCCCCCCCCCCC(=O)Nc1ccn([C@@H]2O[C@H](CO)[C@@H](O)[C@@H]2C#N)c(=O)n1 [(I), 1-(2-C-cyano-2-dioxy-β-D-arabino-pentofuranosyl)-N^4-palmitoyl cytosine]
- anticancer activity ([1]; model of colon cancer): strong anticancer activity
- increasing survival and preventing the spread of colon cancer metastases to the liver, compared with gemcitabine or 5-FU ([1]; same model of colon cancer): superior to either gemcitabine or 5-FU
- dose limiting toxicity [2]: myelosuppression
- tolerability [2]: well tolerated
